Laboratory results reported in the supplement of paper PMC10627819.

Columns and labels:
B. subtilis 168 [1] = assay: fitness (endpoint OD595 vs no drug) (fraction); higher = more growth
In short: (§1)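 At 37 °C, bacteria in TSB, LB Lennox or CY were grown in 384-well plates from a starting OD595 of 0.01. OD595 was measured every 30 min for 14 h, with the first reading used as background. Fitness is the optical density at the switch to stationary phase as a fraction of the robust mean of no-drug control wells, capped at 1.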

S. pneumoniae D39V [2] = assay: as above
In short: as §1

S. aureus Newman = assay: Bliss interaction score (quartile over a dose matrix) (fitness difference); higher = more antagonism (negative = synergy)
In short: (§2)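 OD595 was read at entry into stationary phase and expressed relative to the robust mean of the no-drug wells on the same plate, capped at 1. The resulting ratio is the fitness value. The Bliss score, observed fitness minus product-based expected fitness with single-drug fitness inferred from combinations, is summarised by quartiles over technical, biological and donor/recipient replicates.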

B. subtilis 168 [3] = assay: as above
In short: as §2

S. pneumoniae D39V [4] = assay: as above
In short: as §2

S. aureus DSM 20231 = assay: as above
In short: as §2
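Wherever Bliss interaction score (quartile over a dose matrix) is given: first quartile when negative (synergy) and third quartile when positive (antagonism).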

C[C@H]1COc2c(N3CCN(C)CC3)c(F)cc3c(=O)c(C(=O)O)cn1c23 [Levofloxacin] + CCC[C@@H]1C[C@@H](C(=O)N[C@@H]([C@H]2O[C@H](SC)[C@H](O)[C@@H](O)[C@H]2O)[C@@H](C)O)N(C)C1 [Lincomycin]
fitness, B. subtilis 168 [1], one replicate
Settings	partner 0.1 µg/mL	partner 0.2 µg/mL	partner 0.4 µg/mL	partner 0.8 µg/mL	partner 1.6 µg/mL
first compound 0.001 µg/mL	–	–	0.789	0.889	0.849
first compound 0.002 µg/mL	≥ 1	0.968	–	0.797	0.767
first compound 0.0039 µg/mL	≥ 1	0.975	–	0.743	0.806
first compound 0.0078 µg/mL	0.997	0.961	0.945	–	–

Settings	fitness
B. subtilis 168 [1], first compound 0.002 µg/mL, partner 0.4 µg/mL	0.897
B. subtilis 168 [1], first compound 0.0039 µg/mL, partner 0.4 µg/mL	0.888
B. subtilis 168 [1], first compound 0.0312 µg/mL, partner 0.1 µg/mL	0.0367
B. subtilis 168 [1], first compound 0.0312 µg/mL, partner 0.2 µg/mL	0.0349
B. subtilis 168 [1], first compound 0.0312 µg/mL, partner 0.4 µg/mL	0.0483
B. subtilis 168 [1], first compound 0.0625 µg/mL, partner 0.1 µg/mL	0.0423
B. subtilis 168 [1], first compound 0.0625 µg/mL, partner 0.2 µg/mL	0.0292
B. subtilis 168 [1], first compound 0.0625 µg/mL, partner 0.4 µg/mL	0.0493
B. subtilis 168 [1], first compound 0.125 µg/mL, partner 0.1 µg/mL	0.0441
B. subtilis 168 [1], first compound 0.125 µg/mL, partner 0.2 µg/mL	0.0449
B. subtilis 168 [1], first compound 0.125 µg/mL, partner 0.4 µg/mL	0.0489
S. pneumoniae D39V [2], first compound 0.1725 µg/mL, partner 0.2 µg/mL	0.768
S. pneumoniae D39V [2], first compound 0.1725 µg/mL, partner 0.4 µg/mL	0.7
S. pneumoniae D39V [2], first compound 0.1725 µg/mL, partner 0.8 µg/mL	0.266
S. pneumoniae D39V [2], first compound 0.2 µg/mL, partner 0.215 µg/mL	0.807
S. pneumoniae D39V [2], first compound 0.2 µg/mL, partner 0.43 µg/mL	0.77
S. pneumoniae D39V [2], first compound 0.2 µg/mL, partner 0.86 µg/mL	0.5
S. pneumoniae D39V [2], first compound 0.345 µg/mL, partner 0.2 µg/mL	0.726
S. pneumoniae D39V [2], first compound 0.345 µg/mL, partner 0.4 µg/mL	0.639
S. pneumoniae D39V [2], first compound 0.345 µg/mL, partner 0.8 µg/mL	0.201
S. pneumoniae D39V [2], first compound 0.4 µg/mL, partner 0.215 µg/mL	0.754
S. pneumoniae D39V [2], first compound 0.4 µg/mL, partner 0.43 µg/mL	0.68
S. pneumoniae D39V [2], first compound 0.4 µg/mL, partner 0.86 µg/mL	0.379
S. pneumoniae D39V [2], first compound 0.69 µg/mL, partner 0.2 µg/mL	0.542
S. pneumoniae D39V [2], first compound 0.69 µg/mL, partner 0.4 µg/mL	0.503
S. pneumoniae D39V [2], first compound 0.69 µg/mL, partner 0.8 µg/mL	0.18
S. pneumoniae D39V [2], first compound 0.8 µg/mL, partner 0.215 µg/mL	0.691
S. pneumoniae D39V [2], first compound 0.8 µg/mL, partner 0.43 µg/mL	0.596
S. pneumoniae D39V [2], first compound 0.8 µg/mL, partner 0.86 µg/mL	0.272

Settings	Bliss interaction score
B. subtilis 168 [3]	0.0149
S. aureus DSM 20231	0.169
S. aureus Newman	0.0423
S. pneumoniae D39V [4]	0.104

C[C@H]1COc2c(N3CCN(C)CC3)c(F)cc3c(=O)c(C(=O)O)cn1c23 [Levofloxacin] + CCN(CC)CCOC(=O)c1ccc(N)cc1 [Procaine]
fitness, one replicate
Settings	first compound 0.001 µg/mL	first compound 0.002 µg/mL	first compound 0.0039 µg/mL	first compound 0.2 µg/mL	first compound 0.4 µg/mL	first compound 0.8 µg/mL
B. subtilis 168 [1], partner 85.5 µg/mL	0.882	0.83	0.861	–	–	–
B. subtilis 168 [1], partner 171 µg/mL	0.923	0.824	0.869	–	–	–
B. subtilis 168 [1], partner 342 µg/mL	0.912	0.849	0.872	–	–	–
S. pneumoniae D39V [2], partner 85.5 µg/mL	–	–	–	0.924	0.815	0.372
S. pneumoniae D39V [2], partner 171 µg/mL	–	–	–	≥ 1	0.853	0.49
S. pneumoniae D39V [2], partner 342 µg/mL	–	–	–	0.923	0.86	0.501

fitness
Settings	first compound 0.0312 µg/mL	first compound 0.0625 µg/mL	first compound 0.125 µg/mL	first compound 0.1725 µg/mL	first compound 0.345 µg/mL	first compound 0.69 µg/mL
B. subtilis 168 [1], partner 85.5 µg/mL	0.0534	0.0358	0.0491	–	–	–
B. subtilis 168 [1], partner 171 µg/mL	0.0369	0.0387	0.0458	–	–	–
B. subtilis 168 [1], partner 342 µg/mL	0.0441	0.0408	0.0398	–	–	–
S. pneumoniae D39V [2], partner 85.5 µg/mL	–	–	–	0.937	0.878	0.602
S. pneumoniae D39V [2], partner 171 µg/mL	–	–	–	0.946	0.87	0.62
S. pneumoniae D39V [2], partner 342 µg/mL	–	–	–	0.918	0.877	0.625

Settings	Bliss interaction score
B. subtilis 168 [3]	-0.0156
S. aureus DSM 20231	-0.108
S. aureus Newman	0.108
S. pneumoniae D39V [4]	0.053

C[C@H]1COc2c(N3CCN(C)CC3)c(F)cc3c(=O)c(C(=O)O)cn1c23 [Levofloxacin] + CN1C2=CC=CC=C2N=C3C1=CC=CC3=O [Pyocyanin]
fitness, one replicate
Settings	first compound 0.001 µg/mL	first compound 0.002 µg/mL	first compound 0.0039 µg/mL	first compound 0.2 µg/mL	first compound 0.4 µg/mL	first compound 0.8 µg/mL
B. subtilis 168 [1], partner 1.25 µg/mL	0.891	0.8	0.846	–	–	–
B. subtilis 168 [1], partner 2.5 µg/mL	0.864	0.813	0.795	–	–	–
B. subtilis 168 [1], partner 5 µg/mL	0.68	0.621	0.64	–	–	–
S. pneumoniae D39V [2], partner 0.325 µg/mL	–	–	–	0.878	0.371	0.296
S. pneumoniae D39V [2], partner 0.65 µg/mL	–	–	–	0.965	0.875	0.679

fitness
Settings	first compound 0.0312 µg/mL	first compound 0.0625 µg/mL	first compound 0.125 µg/mL	first compound 0.1725 µg/mL	first compound 0.345 µg/mL	first compound 0.69 µg/mL
B. subtilis 168 [1], partner 1.25 µg/mL	0.0394	0.0289	0.03	–	–	–
B. subtilis 168 [1], partner 2.5 µg/mL	0.0377	0.0408	0.0364	–	–	–
B. subtilis 168 [1], partner 5 µg/mL	0.0364	0.0433	0.0258	–	–	–
S. pneumoniae D39V [2], partner 0.325 µg/mL	–	–	–	0.988	0.936	0.668
S. pneumoniae D39V [2], partner 0.65 µg/mL	–	–	–	0.958	0.896	0.596
S. pneumoniae D39V [2], partner 1.3 µg/mL	–	–	–	0.782	0.74	0.459

Settings	Bliss interaction score
B. subtilis 168 [3]	-0.0161
S. aureus DSM 20231	0.0335
S. aureus Newman	-0.0335
S. pneumoniae D39V [4]	0.0846
